These results are taken from patent publication US8853437B2, “Anti-inflammatory compounds” (The University of Tokyo, priority 2009, dated 2014).

In assay [1] the test system is infiltration of neutrophil. The assay can be described thus: zymosan peritonitis model. Type of assay: in vivo, mouse C57BL/6J. The note with it: for suppressing effect for other cell group (macrophage etc.): 10 ng (FIG. 4C); for neutrophil suppressing activity compared with dexamethasone: 10 ng compound versus 10 μg dexamethasone (FIG. 4A, 4C); for dose dependence of activity in peritonitis model: Example 4, 1 ng or 10 ng/mouse (FIG. 4A(b), 4D); for activities of suppressing infiltration of neutrophil at an inflammation initial stage: low dose of 10 ng (FIG. 4C). Here is the method:
For an inflammation model, zymosan peritonitis elicited by intraperitoneally administering zymosan being a cell wall component of yeast was used. Since an exudate in an abdominal cavity can be recovered, the present model is a model suitable for analyzing cytokines and eicosanoids.
Zymosan A (Wako Pure Chemical Industries, Ltd.) was suspended in a physiological saline to 1 mg/mL, and the suspension was warmed at 37° C. for 30 minutes. Thereafter, this zymosan A solution was vortexed, and returned to room temperature. The compound synthesized in the previous Example, 17,18-diHEPE was taken into a 1.5 mL tube, and a solvent was vaporized with nitrogen to complete dryness and, thereafter, a physiological saline was added to dissolve it. Then, 100 μL of this compound solution was injected (1 ng or 10 ng/mouse) through a tail vein of C57BL/6J mouse (7 weeks old, mail: CLEA Japan, Inc.). As a control, a group in which only a physiological saline was injected, and a group in which dexamethasone (10 μg/mouse) being an anti-inflammatory steroid was injected, were used. After about 2 minutes, 1 mL of a zymosan A solution was intraperitoneally administered. After 2 hours, cells exuded into an abdominal cavity were recovered into a tube with a PBS, and the cell number was counted. Thereafter, this tube was centrifuged at 1200 rpm and 4° C. for 5 minutes to remove the supernatant, a precipitate (pellet) was suspended in PBS, and a population was analyzed by three-color staining of FACS.
Abdominal cavity cells were adjusted to 2.5×10^6 cells/mL, and 200 μL was placed into a 5 mL round-bottom tube (BDFalcon) (5×10^5 cells/tube). To this tube was added an anti-mouse CD16/CD32 antibody (0.5 mg/mL; BDBiosciences) at 1 μL per tube, and this was incubated at room temperature for 10 minutes. To this tube was added a staining antibody mix (prepared by diluting 1.0 μL of FITC bound anti-mouse F4/80 antibody (0.5 mg/mL; eBiosciences), 0.5 μL of PE bound anti-mouse Ly-6G & Ly-6C antibody (0.2 mg/mL; eBiosciences) and 0.5 μL of PerCP-Cy5.5 bound anti-mouse CD11b antibody (0.2 mg/mL; eBiosciences) in 50 μL of PBS, per sample) at 50 μL/tube, and this was incubated at room temperature for 15 minutes under light shielding. Measurement was performed by FACS Calibur (BDBiosciences). […]

The subject of assay [2] is neutrophil which have infiltrated into lung. Description: acute lung damage model (intrabronchial hydrochloric acid). The note with it: 10 ng via tail vein; BAL 12 hours after hydrochloric acid (FIG. 4E). Type of assay: in vivo, mouse C57BL/6J. Here is the method: One hundred μL of a compound 17,18-diHEPE dissolved in a physiological saline was injected through a tail vein of a C57BL/6J mouse (7 weeks old, male; CLEA Japan, Inc.). After 15 minutes, this mouse was anesthetized by intraperitoneally administering a mixed solution of ketamine (Daiichi Sankyo Propharma) and xylazine (Bayer Medical Ltd.), a trachea was exposed, and 25 μL of hydrochloric acid (pH 1.0, 0.1 N; SIGMA) was administered into a left bronchium. As a control, a group in which only a physiological saline was injected and, after anesthesia, hydrochloric acid was administered into a left bronchium (saline/HCl), and a non-treated group (intact) were used. After 12 hours, this mouse was slaughtered, and bronchial alveolus washing (BAL) was performed with 0.7 mL of PBS two times. The cell number in the BAL solution was counted and a population of cells was quantitated by simple Giemsa staining using a simple Giemsa staining solution Diffquick (Sysmex Corporation).

For the molecule `CCC(O)C(O)/C=C/C=C/C=C\C/C=C\C/C=C\CCCC(=O)O` (single isomer, unassigned) [peak 6, 17,18-diHEPE], in assay [1], the “suppressing effect for other cell group (macrophage etc.)” value is given as “not recognized”, the “neutrophil suppressing activity compared with dexamethasone” value is “equivalent to 10 μg of dexamethasone”, the “dose dependence of activity in peritonitis model” value is given as “dose-dependent” and the “activities of suppressing infiltration of neutrophil at an inflammation initial stage” value is “recognized”. Moreover, the “neutrophil-specific infiltration suppressing activity” value in assay [2] is given as “recognized”.
As for `CCC(O)C(O)/C=C/C=C/C=C\C/C=C\C/C=C\CCCC(=O)O` (centres unmarked) [17,18-diHEPE, 17,18-dihydroxyeicosapentaenoic acid], the “suppression of infiltration of neutrophil” value in assay [1] (10 ng/mouse via tail vein, abdominal cavity cells recovered 2 hours after zymosan, FACS (FIG. 4A)) is “about 40%”. In addition, the “IC40 (dose versus decrease in the neutrophil number)” value in assay [1] (calculated from graph FIG. 4F) is reported as “approximately 8 ng”.
As for `CCC(O)C(O)/C=C/C=C/C=C\C/C=C\C/C=C\CCCC(=O)O` (single isomer, unassigned) [peak 5, 17,18-diHEPE], in assay [1], the “suppressing effect for other cell group (macrophage etc.)” value is listed as “not recognized”, the “neutrophil suppressing activity compared with dexamethasone” value is reported as “equivalent to 10 μg of dexamethasone”, the “dose dependence of activity in peritonitis model” value is given as “dose-dependent” and the “activities of suppressing infiltration of neutrophil at an inflammation initial stage” value is given as “recognized”.
